{
  "source": "paper PMC4678037",
  "about": "(Neuropharmacology, 2015)",
  "key": {"[1]": {"tested_on": "body weight", "test": "Body weight loss in mice on ad lib. 'cafeteria' diet, 3 wks repeated p.o.", "assay_type": "in vivo, mouse", "conditions": "approximate, vehicle-corrected, AZ data on file"}, "[2]": {"tested_on": "body weight / suicidality", "conditions": "ref FDA, 2007, cited from earlier work"}, "[3]": {"conditions": "cited from earlier work"}, "[4]": {"target": "hCB1R (Homo sapiens, UniProt P21554)", "sequence (P21554 whole entry)": "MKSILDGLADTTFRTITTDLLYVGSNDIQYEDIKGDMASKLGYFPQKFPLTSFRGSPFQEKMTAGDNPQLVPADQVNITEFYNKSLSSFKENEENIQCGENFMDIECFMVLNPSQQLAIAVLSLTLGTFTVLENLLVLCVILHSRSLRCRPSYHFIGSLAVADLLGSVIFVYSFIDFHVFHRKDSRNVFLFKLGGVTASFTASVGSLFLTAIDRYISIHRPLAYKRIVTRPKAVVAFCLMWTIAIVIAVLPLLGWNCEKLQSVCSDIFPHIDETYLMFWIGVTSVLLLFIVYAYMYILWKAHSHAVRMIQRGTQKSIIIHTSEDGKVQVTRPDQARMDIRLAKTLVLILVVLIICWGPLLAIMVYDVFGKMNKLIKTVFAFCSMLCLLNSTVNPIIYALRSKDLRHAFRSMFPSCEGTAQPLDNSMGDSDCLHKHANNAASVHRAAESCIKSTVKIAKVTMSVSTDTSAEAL", "assay_type": "biochemical"}, "[5]": {"target": "mCB1R (Mus musculus, UniProt P47746)", "sequence (P47746 whole entry)": "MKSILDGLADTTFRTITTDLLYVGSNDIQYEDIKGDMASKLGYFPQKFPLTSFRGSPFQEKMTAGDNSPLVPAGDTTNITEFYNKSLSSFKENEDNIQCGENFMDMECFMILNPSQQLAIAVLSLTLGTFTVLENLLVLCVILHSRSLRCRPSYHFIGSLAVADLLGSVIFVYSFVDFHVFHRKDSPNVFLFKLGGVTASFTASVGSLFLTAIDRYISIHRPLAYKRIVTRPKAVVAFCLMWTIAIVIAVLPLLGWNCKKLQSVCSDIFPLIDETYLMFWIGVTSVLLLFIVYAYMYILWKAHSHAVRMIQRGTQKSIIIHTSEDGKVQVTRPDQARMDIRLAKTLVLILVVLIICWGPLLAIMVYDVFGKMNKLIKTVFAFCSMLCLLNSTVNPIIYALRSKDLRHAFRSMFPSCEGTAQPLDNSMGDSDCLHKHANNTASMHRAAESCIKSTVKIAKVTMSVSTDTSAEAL", "assay_type": "biochemical"}, "[6]": {"tested_on": "CB1R", "test": "Change in [11C]SD5024 binding in pons after CB1R antagonists", "assay_type": "in vivo, cynomolgus monkeys (Macaca fascicularis)"}, "[7]": {"tested_on": "body weight", "test": "10-day Phase I Multiple Ascending Dose", "assay_type": "in vivo, human", "conditions": "10-day Phase I MAD; doses giving plasma concentrations comparable to ~20–30% brain CB1R occupancy; AZ data on file"}, "[8]": {"tested_on": "CB1R", "test": "PET CB1R occupancy with [11C]SD5024 in striatum"}, "[9]": {"test": "Whole brain uptake of radioligand", "assay_type": "in vivo, cynomolgus monkeys (Macaca fascicularis)", "conditions": "i.v. bolus of radioligand, 42 PET measurements"}, "[10]": {"tested_on": "CB1R", "conditions": "binding to CB1R; ref Donohue et al., 2008a,b; cited from earlier work"}, "[11]": {"tested_on": "CB1R", "conditions": "across species, ref Fong et al., 2007, Burns et al., Addy et al., 2008a, Proietto et al., 2010, Aronne et al., Hadcock et al.; cited from earlier work"}},
  "note": "Like-named read-outs stand apart in the source and are kept apart here. Marks after values point to notes of the source that are not given here.",
  "data": [
    {"compound": "Cc1c(C(=O)NN2CCCCC2)nn(-c2ccc(Cl)cc2Cl)c1-c1ccc(Cl)cc1", "note": "[Rimonabant, 5-(4-Chlorophenyl)-1-(2,4-dichloro-phenyl)-4-methyl-N-(piperidin-1-yl)-1H-pyrazole-3-carboxamide]", "values": [
      {"measurement": "Maximal in vivo body weight loss (% of baseline)", "setting": "[1]", "result": "~20% of baseline"},
      {"measurement": "Suicidality in the clinic", "setting": "[2]; 5 mg dose vs. selected 20 mg dose", "result": "absence of a detectable rise in suicidality"},
      {"measurement": "Weight loss in the clinic", "setting": "[2]; 5 mg dose", "result": "significant (albeit modest) weight loss"},
      {"measurement": "Protein bound", "setting": "[3]; ref FDA, 2007", "result": "> 99.9", "unit": "%"}
    ]},
    {"compound": "Cc1c(C(=O)NN2CCCCC2)nc(-c2ccc(Cl)cc2Cl)n1-c1ccc(OS(=O)(=O)CCC(F)(F)F)cc1", "note": "[AZ compound 1, 4-[2-(2,4-Dichlorophenyl)-5-methyl-4-(piperidin-1-ylcarbamoyl)-1H-imidazol-1-yl]phenyl 3,3,3-trifluoropropane-1-sulfonate]", "values": [
      {"measurement": "Ki", "setting": "[4]", "result": "0.19 ± 0.01", "unit": "nM"},
      {"measurement": "Ki", "setting": "[5]", "result": "0.03 ± 0.002", "unit": "nM"},
      {"measurement": "Maximal in vivo body weight loss (% of baseline)", "setting": "[1]", "result": "~23–25% of baseline"},
      {"measurement": "AUC50–122min difference compared to baseline", "setting": "[6]; 6.0 mg/kg (highest dose)", "result": "−20", "unit": "%"},
      {"measurement": "Effect on body weight", "setting": "[7]", "result": "tended to reduce body weight"},
      {"measurement": "Receptor Occupancy", "setting": "[8]; striatum, 0.03 mg/kg i.v., monkey 1, plasma 0 μmol/L, data for 50–93 min", "result": "0.4 ^* %"},
      {"measurement": "Receptor Occupancy", "setting": "[8]; striatum, 0.3 mg/kg i.v., monkey 1, plasma 0.038 μmol/L, 50–122 min", "result": 35, "unit": "%"},
      {"measurement": "Receptor Occupancy", "setting": "[8]; striatum, 0.3 mg/kg i.v., monkey 2, plasma 0.055 μmol/L, data for 50–93 min", "result": "23 ^* %"},
      {"measurement": "Receptor Occupancy", "setting": "[8]; striatum, 1.0 mg/kg i.v., monkey 2, plasma 0.154 μmol/L, 50–122 min", "result": 73, "unit": "%"},
      {"measurement": "Receptor Occupancy", "setting": "[8]; striatum, 2.0 mg/kg i.v., monkey 3, plasma 0.999 μmol/L, 50–122 min", "result": 88, "unit": "%"},
      {"measurement": "Receptor Occupancy", "setting": "[8]; striatum, 6.0 mg/kg i.v., monkey 3, plasma 2.220 μmol/L, 50–122 min", "result": 99, "unit": "%"}
    ]},
    {"compound": "Cc1c2c(n(-c3ccc(F)cc3Cl)c1-c1ccc(OS(=O)(=O)CCC(F)(F)F)cc1)CCN(N1CCCCC1)C2=O", "note": "[AZ compound 3, 4-[1-(2-Chloro-4-fluorophenyl)-3-methyl-4-oxo-5-piperidin-1-yl-4,5,6,7-tetrahydro-1H-pyrrolo[3,2-c]pyridin-2-yl]phenyl 3,3,3-trifluoropropane-1-sulfonate]", "values": [
      {"measurement": "Ki", "setting": "[4]", "result": "0.24 ± 0.01", "unit": "nM"},
      {"measurement": "Ki", "setting": "[5]", "result": "0.03 ± 0.002", "unit": "nM"},
      {"measurement": "Maximal in vivo body weight loss (% of baseline)", "setting": "[1]", "result": "~30% of baseline"},
      {"measurement": "AUC50–122min difference compared to baseline", "setting": "[6]; 0.6 mg/kg (highest dose)", "result": "−23", "unit": "%"},
      {"measurement": "Receptor Occupancy", "setting": "[8]; striatum, 0.02 mg/kg i.v., monkey 4, plasma 0.001 μmol/L, 50–122 min", "result": "−18", "unit": "%"},
      {"measurement": "Receptor Occupancy", "setting": "[8]; striatum, 0.06 mg/kg i.v., monkey 3, plasma […], 50–122 min", "result": 0.7, "unit": "%"},
      {"measurement": "Receptor Occupancy", "setting": "[8]; striatum, 0.06 mg/kg i.v., monkey 4, plasma 0.020 μmol/L, 50–122 min", "result": "−12", "unit": "%"},
      {"measurement": "Receptor Occupancy", "setting": "[8]; striatum, 0.2 mg/kg i.v., monkey 4, plasma 0.084 μmol/L, 50–122 min", "result": 14, "unit": "%"},
      {"measurement": "Receptor Occupancy", "setting": "[8]; striatum, 0.4 mg/kg i.v., monkey 3, plasma 0.245 μmol/L, 50–122 min", "result": 59, "unit": "%"},
      {"measurement": "Receptor Occupancy", "setting": "[8]; striatum, 0.6 mg/kg i.v., monkey 4, plasma 0.275 μmol/L, 50–122 min", "result": 82, "unit": "%"}
    ]},
    {"compound": "N#Cc1ccc(S(=O)(=O)N=C(N)N2CC(c3ccccc3)C(c3ccc(Cl)cc3)=N2)cc1", "note": "(stereo not drawn) [[^11C]SD5024]", "values": [
      {"measurement": "Peak radioactivity in brain (range)", "setting": "[9]", "result": "2.6 to 4.2", "unit": "% ID"},
      {"measurement": "IC50", "setting": "[10]", "result": 2.8, "unit": "nM"},
      {"measurement": "Ki", "setting": "[10]", "result": 0.5, "unit": "nM"}
    ]},
    {"compound": "Cc1c2c(n(-c3ccc(Cl)cc3Cl)c1-c1ccc(OS(=O)(=O)CCC(F)(F)F)cc1)CCN(N1CCCCC1)C2=O", "note": "[AZ compound 2, 4-[1-(2,4-Dichlorophenyl)-3-methyl-4-oxo-5-piperidin-1-yl-4,5,6,7-tetrahydro-1H-pyrrolo[3,2-c]pyridin-2-yl]phenyl 3,3,3-trifluoropropane-1-sulfonate]", "values": [
      {"measurement": "Ki", "setting": "[4]", "result": "0.2 ± 0.01", "unit": "nM"},
      {"measurement": "Ki", "setting": "[5]", "result": "0.02 ± 0.001", "unit": "nM"},
      {"measurement": "Maximal in vivo body weight loss (% of baseline)", "setting": "[1]", "result": "~30% of baseline"},
      {"measurement": "AUC50–122min difference compared to baseline", "setting": "[6]; 2.0 mg/kg (highest dose)", "result": "−23", "unit": "%"},
      {"measurement": "Receptor Occupancy", "setting": "[8]; striatum, 0.06 mg/kg i.v., monkey 2, plasma 0.023 μmol/L, 50–122 min", "result": 0.6, "unit": "%"},
      {"measurement": "Receptor Occupancy", "setting": "[8]; striatum, 0.2 mg/kg i.v., monkey 1, plasma 0.050 μmol/L, 50–122 min", "result": "−10", "unit": "%"},
      {"measurement": "Receptor Occupancy", "setting": "[8]; striatum, 0.2 mg/kg i.v., monkey 4, plasma 0.057 μmol/L, 50–122 min", "result": 9.2, "unit": "%"},
      {"measurement": "Receptor Occupancy", "setting": "[8]; striatum, 0.25 mg/kg i.v., monkey 5, plasma 0.083 μmol/L, 50–122 min", "result": 1.4, "unit": "%"},
      {"measurement": "Receptor Occupancy", "setting": "[8]; striatum, 0.3 mg/kg i.v., monkey 2, plasma 0.143 μmol/L, 50–122 min", "result": 35, "unit": "%"},
      {"measurement": "Receptor Occupancy", "setting": "[8]; striatum, 0.6 mg/kg i.v., monkey 5, plasma 0.252 μmol/L, 50–122 min", "result": 64, "unit": "%"},
      {"measurement": "Receptor Occupancy", "setting": "[8]; striatum, 1.0 mg/kg i.v., monkey 4, plasma 0.401 μmol/L, 50–122 min", "result": 69, "unit": "%"},
      {"measurement": "Receptor Occupancy", "setting": "[8]; striatum, 2.0 mg/kg i.v., monkey 1, plasma […], 50–122 min", "result": 78, "unit": "%"}
    ]},
    {"compound": "C[C@H](NC(=O)C(C)(C)Oc1ccc(C(F)(F)F)cn1)[C@@H](Cc1ccc(Cl)cc1)c1cccc(C#N)c1", "note": "[Taranabant, N-[(2S,3S)-4-(4-Chlorophenyl)-3-(3-cyanophenyl)-2-butanyl]-2-methyl-2-{[5-(trifluoromethyl)-2-pyridinyl]oxy}propanamide, reference compound]", "values": [
      {"measurement": "Ki", "setting": "[5]", "result": "0.01 ± 0.001", "unit": "nM"},
      {"measurement": "Maximal in vivo body weight loss (% of baseline)", "setting": "[1]", "result": "~30% of baseline"},
      {"measurement": "AUC50–122min difference compared to baseline", "setting": "[6]; 0.2 mg/kg (highest dose)", "result": "−29", "unit": "%"},
      {"measurement": "CB1R occupancy that may be sufficient for appetite- and body weight-reducing efficacy", "setting": "[11]", "result": "10 to 40", "unit": "%"},
      {"measurement": "Protein bound", "setting": "[3]; ref Li et al., 2010", "result": "> 98", "unit": "%"},
      {"measurement": "CB1R occupancy at exposures corresponding to those needed for optimal clinical efficacy", "setting": "[8]; non-human primates, typically around", "result": "20–30%"},
      {"measurement": "Receptor Occupancy", "setting": "[8]; striatum, 0.005 mg/kg i.v., monkey 7, plasma 0.002 μmol/L, 50–122 min", "result": 1.7, "unit": "%"},
      {"measurement": "Receptor Occupancy", "setting": "[8]; striatum, 0.015 mg/kg i.v., monkey 7, plasma 0.010 μmol/L, 50–122 min", "result": "−3.9", "unit": "%"},
      {"measurement": "Receptor Occupancy", "setting": "[8]; striatum, 0.05 mg/kg i.v., monkey 1, plasma 0.015 μmol/L, 50–122 min", "result": 35, "unit": "%"},
      {"measurement": "Receptor Occupancy", "setting": "[8]; striatum, 0.2 mg/kg i.v., monkey 1, plasma 0.093 μmol/L, 50–122 min", "result": 94, "unit": "%"},
      {"measurement": "Plasma concentration corresponding to 20–30% CB1R occupancy", "setting": "[8]; striatum, present study", "result": "0.01 to 0.02", "unit": "µmol/L"}
    ]}
  ]
}
